Results as given in PubChem BioAssay AID1996.
≈ marks a conversion by molar mass, not a printed value.

Conditions: buffer; pH 7.4; 200.0 µM

Structure (SMILES) | solubility kinetic [µg/mL]
CC(=O)Oc1ccc2nc(-c3ccc(Br)o3)oc(=O)c2c1 | 4.2 (≈ 12 µM)
NC(=O)C1(C(N)=O)OC1c1ccc(Cl)cc1Cl (stereo unspecified) | > 41.3
COCC(=O)Nc1ccc2c(c1)OCO2 | 27.7 (≈ 132 µM)
NC(=O)C1CCN(C(=O)CCn2c(=O)oc3ccccc32)CC1 | > 47.6
CN(c1ccccc1)c1nc(N)c([N+](=O)[O-])c(N2CCCCC2)n1 | 13 (≈ 39.6 µM)
Oc1ccc(-c2ccccc2)cc1CN1CCCCCC1 | 17.4 (≈ 61.8 µM)
Cc1ccc(-n2cnc3sc(C)c(C)c3c2=O)cc1 | 0.8 (≈ 2.96 µM)
C=CC(=O)NC(C)(C)CCN1CCOCC1 | > 33.9
O=C(Cc1cccs1)NCc1cccc(Br)c1 | > 46.5
CC(=O)Nc1ccc(NC(=O)c2cc[n+]([O-])cc2)cc1 | > 40.7
CCN(c1ccccc1)S(=O)(=O)c1ccc(C(=O)NCc2ccco2)cc1 | 32 (≈ 83.2 µM)
CC1CCN(C(=O)COC(=O)c2ccc([N+](=O)[O-])o2)CC1 | > 44.4
Cc1c(C(=O)Nc2ccc(Nc3ccccc3)cc2)cccc1[N+](=O)[O-] | 1.3 (≈ 3.74 µM)
C[N+](C)(C)CC#CCN1CCCC1=O.[I-] | > 48.3
CC1(C(=O)N2CCOCC2)CCCCC1 | 26.3 (≈ 124 µM)
Brc1ccc(C2=CSC3=NCCN23)cc1 | 28.9 (≈ 103 µM)
C=CCN1C(=O)C(CC(=O)O)SC1=Nc1ccc(C(=O)O)cc1 (stereo unspecified) | 49.2 (≈ 147 µM)
Cc1ccc(NC(=O)c2cc(F)c(F)cc2Cl)nc1 | 12.8 (≈ 45.3 µM)
FC(F)Sc1nc2ccccc2[nH]1 | > 30
CCN(C(=S)NCCOC)c1cccc2ccccc12 | 12.9 (≈ 44.7 µM)
COc1ccc(NS(=O)(=O)c2cc(NC(=O)c3ccccn3)ccc2OC)cc1Br | 3.4 (≈ 6.91 µM)

Structure (SMILES) | solubility kinetic [µg/mL]
COc1ccc(C(=O)O)cc1S(=O)(=O)N1CCSCC1 | > 47.6
COC(=O)Cn1cnc2scc(-c3ccc(C)cc3)c2c1=O | > 47.2
CC(CCc1ccccc1)NC(=O)COC(=O)c1cccnc1Cl (stereo unspecified) | > 52
Cc1ccc(C)c(-n2c3nc(=O)n(C)c(=O)c-3cc3ccccc32)c1 | > 49.7
O=C(Nc1ccccn1)C(=O)Nc1ccccn1 | 35.6 (≈ 147 µM)
OCCNc1nc(-c2ccccc2)c2cc(Br)ccc2n1 | 24.2 (≈ 70.3 µM)
Cc1ccc(NC(=O)C2CC(=O)N(C(C)C)C2)cc1Cl (stereo unspecified) | > 44.2
COc1ccc(NC(=O)c2ccc(Oc3ncccn3)cc2)cc1 | 10.6 (≈ 33 µM)
CCCc1nc2c(=O)n(C)c(=O)nc-2n(C)n1 | > 35.3
Cc1nnc(NC(=O)CCNC(=O)c2ccccc2Cl)s1 | > 48.7
Cc1noc(C)c1CN1C(=O)c2ccccc2C1=O | 30.1 (≈ 117 µM)
CC(C)c1ccccc1OCC(=O)N1CCCCCCC1 | 18.8 (≈ 65 µM)
CC(C)(C)C(=O)CN1C(=O)NC2(CCc3ccccc32)C1=O (stereo unspecified) | > 45.1
COC(=O)c1cc(OC)c(OC)cc1NC(=O)c1csc(C)c1 | < 0.7
NS(=O)(=O)c1ccc(CNC(=O)Cc2ccsc2)cc1 | > 46.6
COc1ccc(NC(C)=O)cc1C#N | 24.5 (≈ 129 µM)
CCN(CC(=O)NC(C)C)C(=O)[C@@H](NC(=O)c1ccco1)C(C)C | > 50.6
COC(=O)c1sc(NC(=O)c2c(C)noc2C)nc1C | > 44.3
CC(NCCC1(Cc2ccccc2Cl)CCOC(C)(C)C1)c1cccs1 (stereo unspecified) | 46.3 (≈ 118 µM)
COc1ccc(S(=O)(=O)N2CC(=O)Nc3ccccc32)cc1C | > 49.9
CC12CN3CC(C)(CN(C1)C3c1ccc3c(c1)OCO3)C2O (stereo unspecified) | > 45.4

Structure (SMILES) | solubility kinetic [µg/mL]
O=C(Cn1cnc([N+](=O)[O-])c1)Nc1ccccc1C(F)(F)F | 39 (≈ 124 µM)
Cc1ccc(OC(C)C(=O)N2CC(=O)Nc3ccccc32)cc1 (stereo unspecified) | > 46.6
CCCCN1C(=O)c2ccc(C(=O)OCC(=O)NCCc3ccc(S(N)(=O)=O)cc3)cc2C1=O | 42.1 (≈ 86.4 µM)
O=C(O)[C@H]1Cc2ccccc2CN1S(=O)(=O)c1ccc(F)cc1 | > 50.3
COC(=O)c1cccc(NS(C)(=O)=O)c1 | > 34.4
CC(C(=O)c1c[nH]c2ccccc12)N1CCOCC1 (stereo unspecified) | > 38.7
S=C(/N=c1/sccn1Cc1ccccc1)NC1CC1 | 5.4 (≈ 18.7 µM)
NC(=O)NC(=O)COC(=O)c1ccc2noc(-c3ccccc3)c2c1 | 5.2 (≈ 15.3 µM)
NC(=O)C1CCN(CC(O)COCc2ccccc2Cl)CC1 (stereo unspecified) | > 49
O=C(Cc1ccc(-c2ccccc2)cc1)NC1CCCC1 | < 0.6
COC(=O)C1Cc2c([nH]c3ccccc23)C(C(C)C)N1 (stereo unspecified) | 33.4 (≈ 123 µM)
CC1(C)Cc2nc(-c3ccccc3)nc(SCC(O)CO)c2CO1 (stereo unspecified) | 51.7 (≈ 149 µM)
COC(=O)CN1C(=O)NC2(CCCc3ccccc32)C1=O (stereo unspecified) | > 43.2
COc1ccc(/C(N)=N/OC(=O)C2CCCCC2)cc1OC | 35.2 (≈ 115 µM)
CCn1cc(C(=O)N2CCCCC2)c2ccccc21 | > 38.5
CC(OC(=O)c1nsc(Cl)c1Cl)C(=O)NC1CCCCC1 (stereo unspecified) | 31.6 (≈ 90 µM)
COc1ccc(CC(=O)N2CCN(c3ccccc3)CC2)cc1 | 31.7 (≈ 102 µM)
CC(C)(C)NC(=O)NC(=O)CSc1ncccn1 | > 40.2
O=C(/C=C/c1ccccc1)NCc1ccco1 | > 34.1
